Test results as given in US20120129811A1, “TRICYCLIC INHIBITORS OF PRO-MATRIX METALLOPROTEINASE ACTIVATION” (priority 2010, published 2012).
Counter-ions that a name gives are not always drawn.

Experiments:
[1] = target: T1, proMMP9(20-445;ΔFnII) (SEQ ID NO:6) (Homo sapiens, UniProt P14780, DEL216-390); assay: ThermoFluor binding assay with proMMP9(20-445;ΔFnII)
T1 construct: start methionine (N); made in house; host or cells: E. coli BL21(DE3) RIL
T1 sequence (P14780 with tags, fused parts or gaps DEL216-390): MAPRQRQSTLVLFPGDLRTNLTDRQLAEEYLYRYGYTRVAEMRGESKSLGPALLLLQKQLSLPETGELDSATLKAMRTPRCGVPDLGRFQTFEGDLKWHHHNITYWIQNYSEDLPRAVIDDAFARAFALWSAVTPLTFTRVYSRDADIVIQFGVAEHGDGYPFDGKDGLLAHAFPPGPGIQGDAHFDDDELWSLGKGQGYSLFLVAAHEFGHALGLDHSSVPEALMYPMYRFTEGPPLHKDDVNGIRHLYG
Outline: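 Protein thermal stability was measured with 2.8 μM proMMP9(20-445;ΔFnII) and 50 μM 1,8-ANS in 50 mM HEPES pH 7.0, 100 mM NaCl, 0.001% Tween-20, 2.5 mM MgCl2, 300 μM CaCl2, across serial compound dilutions. Samples were heated 40–90° C at 1° C/min with fluorescence read at 500 nm. Tm was fitted, and binding was derived from thermodynamic parameters obtained by DSC and ThermoFluor.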

[2] = target: T2, proMMP9(67-444;ΔFnII) (SEQ ID NO:5) (Homo sapiens, UniProt P14780, DEL216-390); assay: ThermoFluor binding assay with proMMP9(67-444;ΔFnII)
T2 construct: start methionine (N); made in house; host or cells: E. coli BL21(DE3) RIL
T2 sequence (P14780 with tags, fused parts or gaps DEL216-390): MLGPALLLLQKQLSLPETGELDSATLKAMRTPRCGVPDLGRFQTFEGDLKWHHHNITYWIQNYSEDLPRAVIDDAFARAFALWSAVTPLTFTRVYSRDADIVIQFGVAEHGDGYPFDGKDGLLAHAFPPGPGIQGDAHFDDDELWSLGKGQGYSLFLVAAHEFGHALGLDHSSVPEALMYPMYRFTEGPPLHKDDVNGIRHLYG
Outline: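 Thermal shift of 3.5 μM proMMP9(67-444;ΔFnII), desalted beforehand, with 50 μM 1,8-ANS in 50 mM HEPES pH 7.0, 100 mM NaCl, 2.5 mM MgCl2, 300 μM CaCl2, 0.001% Tween-20. Heated 40–90 °C at 1 °C/min, fluorescence read at 500 nm; binding fitted from Tm shifts using DSC- and ThermoFluor-derived unfolding parameters.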

[3] = target: T3, proMMP13(1-268) (SEQ ID NO:7) (Homo sapiens, UniProt P45452); assay: ThermoFluor binding assay with proMMP13(1-268)
T3 construct: 6xHis (C); made in house; host or cells: HEK293 (transient, secreted)
Outline: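 Thermal shift of desalted proMMP13(1-268) at 3.5 μM final, in 50 mM HEPES pH 7.0, 100 mM NaCl, 0.001% Tween-20, 2.5 mM MgCl2, 300 μM CaCl2, with 25 μM 1,8-ANS. Serially diluted compounds heated 40–90° C. at 1° C./min, fluorescence read at 500±25 nm. Tm fitted; binding modeled using DSC-derived thermodynamic parameters.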

[4] = target: T4, full-length proMMP9(1-707) activation by catalytic MMP3 (Homo sapiens, UniProt P14780, R574P); assay: proMMP9/MMP3 P126 Activation Assay; format: biochemical
T4 construct: made in house; host or cells: proMMP9: HEK293 (secreted); MMP3: E. coli
Protocol: proMMP9/MMP3 P126 Activation Assay
The reaction volume was 50 μL. […] Reactivity of residual MMP3 towards P-126 substrate was minimal under these conditions.

[5] = target: T5, proMMP13(1-268) activation by plasmin (Homo sapiens, UniProt P45452); assay: ProMMP13/Plasmin P126 Activation Assay; format: biochemical
T5 construct: 6xHis (C); made in house; host or cells: HEK293 (proMMP13)
Protocol: ProMMP13/Plasmin P126 Activation Assay
On the day of assay, proMMP13(1-268) (SEQ ID NO:7) purified from HEK293 cells and plasmin were diluted to 160 nM and 320 nM, respectively, in assay buffer. The reaction volume was 50 μL. […] The plate was sealed and incubated for 40 min at 37° C. […] Plasmin was not reactive towards P-126 substrate under these conditions.

T4 sequence (P14780 20-707 R574P): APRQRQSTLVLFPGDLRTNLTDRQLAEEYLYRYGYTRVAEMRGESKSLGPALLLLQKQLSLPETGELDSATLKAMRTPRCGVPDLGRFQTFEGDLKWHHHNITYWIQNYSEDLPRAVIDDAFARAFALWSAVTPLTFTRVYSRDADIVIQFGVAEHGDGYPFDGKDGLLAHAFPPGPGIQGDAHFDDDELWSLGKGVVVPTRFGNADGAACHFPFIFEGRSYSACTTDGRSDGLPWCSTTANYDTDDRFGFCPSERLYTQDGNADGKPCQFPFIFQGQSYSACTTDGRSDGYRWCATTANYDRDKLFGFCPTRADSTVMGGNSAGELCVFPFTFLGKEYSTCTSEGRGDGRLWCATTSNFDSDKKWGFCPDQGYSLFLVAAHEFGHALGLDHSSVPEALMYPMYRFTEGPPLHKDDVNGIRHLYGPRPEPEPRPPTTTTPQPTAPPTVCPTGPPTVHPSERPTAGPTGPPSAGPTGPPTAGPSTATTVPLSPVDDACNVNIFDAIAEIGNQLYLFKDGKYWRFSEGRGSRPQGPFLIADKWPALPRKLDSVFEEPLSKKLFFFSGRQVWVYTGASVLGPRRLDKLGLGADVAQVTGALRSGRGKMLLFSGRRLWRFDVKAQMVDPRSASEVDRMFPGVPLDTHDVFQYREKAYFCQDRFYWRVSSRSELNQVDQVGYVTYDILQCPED

Row | Compound | Kd [1] | Kd [2] | Kd [3] | IC50 [4] | IC50 [5]
1 | COc1cc(C(N)=O)ccc1Nc1nc2c(ccc3c2ncn3C)s1 [Example 51, 3-Methoxy-4-(6-methyl-6H-imidazo[4′,5′:3,4]benzo[2,1-d]thiazol-2-ylamino)-benzamide.HCl] | 3.1 µM | 0.4 µM | 8.3 µM | 0.2 µM | > 20 µM
2 | CC(C)Oc1ccc(C(N)=O)cc1Nc1nc2c(ccc3ccncc32)s1 [Example 89, 4-Isopropoxy-3-(thiazolo[5,4-h]isoquinolin-2-ylamino)-benzamide.TFA] | 3.1 µM | 0.78 µM | 6.8 µM | 0.33 µM | 2.8 µM
3 | CC(C)Oc1ccc(C(N)=O)cc1Nc1nc2c(ccc3cnccc32)s1 [Example 90, 4-Isopropoxy-3-(thiazolo[4,5-f]isoquinolin-2-ylamino)-benzamide.TFA] | 0.28 µM | 3 µM | 2.7 µM | 0.2 µM | 2.5 µM
4 | COc1ccc(S(C)(=O)=O)cc1Nc1nc2c(ccc3c2cnn3C)s1 [Example 92, (5-Methanesulfonyl-2-methoxy-phenyl)-(6-methyl-6H-3-thia-1,6,7-triaza-as-indacen-2-yl)-amine.HCl] | 1.1 µM | 0.41 µM |  | 0.13 µM | ~6 µM
5 | CC(C)Oc1ccc(C(N)=O)cc1Nc1nc2c(s1)CCc1ccncc1-2 [Example 116, 3-(4,5-Dihydro-thiazolo[5,4-h]isoquinolin-2-ylamino)-4-isopropoxy-benzamide.TFA] | 1.8 µM | 7.3 µM | 8.7 µM | 0.98 µM | 
6 | COc1ccc(C(N)=O)cc1Nc1nc2c(s1)CCc1ncccc1-2 [Example 117, 3-(4,5-Dihydro-thiazolo[4,5-f]quinolin-2-ylamino)-4-methoxy-benzamide] | 8.8 µM | 3.5 µM | 32 µM | 6 µM | 

These reach a lower Kd [1]. Values come first.

Row | Kd [1] | Kd [2] | Kd [3] | IC50 [4] | IC50 [5] | Compound
7 | 0.17 µM | 0.1 µM | 0.81 µM | 0.092 µM | 1.9 µM | CC(C)Oc1ccc(C(N)=O)cc1Nc1nc2c(ccc3c2ncn3C)s1 [Example 22, 4-Isopropoxy-3-(6-methyl-6H-imidazo[4′,5′:3,4]benzo[2,1-d]thiazol-2-ylamino)-benzamide.HCl]
8 | 0.12 µM | 0.31 µM | 0.93 µM | 0.19 µM | 4.5 µM | CC(C)Oc1ccc(C(N)=O)cc1Nc1nc2c(ccc3c2cnn3C)s1 [Example 30, 4-Isopropoxy-3-(6-methyl-6H-3-thia-1,6,7-triaza-as-indacen-2-ylamino)-benzamide.HCl]
9 | 0.086 µM | 0.49 µM | 0.58 µM | 0.1 µM | 1.1 µM | CCn1cnc2ccc3sc(Nc4cc(C(N)=O)ccc4OC(C)C)nc3c21 [Example 33, 3-(8-Ethyl-8H-imidazo[4′,5′:3,4]-benzo[2,1-d]thiazol-2-ylamino)-4-isopropoxy-benzamide.HCl]
10 | 0.23 µM | 0.035 µM | 2.8 µM | 0.07 µM | ~6 µM | COc1ccc(F)cc1Nc1nc2c(ccc3c2ncn3C)s1 [Example 57, (5-Fluoro-2-methoxy-phenyl)-(6-methyl-6H-imidazo[4′,5′:3,4]benzo[2,1-d]thiazol-2-yl)-amine.HCl]
11 | 0.19 µM | 0.36 µM |  | 0.17 µM | 1.8 µM | COc1ccc(C(N)=O)cc1Nc1nc2c(ccc3c2cnn3C)s1 [Example 95, 4-Methoxy-3-(6-methyl-6H-3-thia-1,6,7-triaza-as-indacen-2-ylamino)-benzamide.HCl]
